Assays:
Giardia intestinalis [1] = assay: Giardicidal activity against metronidazole-resistant Giardia intestinalis incubated for 48 hrs by hemocytometric counting method; type: functional, organism-based; conditions: Giardia duodenalis
Giardia intestinalis [2] = assay: Potency index, ratio of albendazole IC50 to test compound IC50 for Giardicidal activity against albendazole-resistant Giardia intestinalis incubated for 48 hrs by hemocytometric counting method; type: functional, Giardia duodenalis
Giardia intestinalis [3] = assay: Giardicidal activity against Giardia intestinalis IMSS isolate incubated for 48 hrs by hemocytometric counting method; type: functional, organism-based; conditions: Giardia duodenalis
Giardia intestinalis [4] = assay: Giardicidal activity against Giardia intestinalis WB ATCC 30957 incubated for 48 hrs by hemocytometric counting method; type: functional, organism-based; conditions: Giardia duodenalis, WB ATCC 30957, 48 h
Giardia intestinalis [5] = assay: Potency index, ratio of nitazoxanide IC50 to test compound IC50 for Giardicidal activity against nitazoxanide-resistant Giardia intestinalis incubated for 48 hrs by hemocytometric counting method; type: functional, Giardia duodenalis
Giardia intestinalis [6] = assay: Giardicidal activity against nitazoxanide-resistant Giardia intestinalis incubated for 48 hrs by hemocytometric counting method; type: functional, organism-based; conditions: Giardia duodenalis
Giardia intestinalis [7] = assay: Giardicidal activity against albendazole-resistant Giardia intestinalis incubated for 48 hrs by hemocytometric counting method; type: functional, organism-based; conditions: Giardia duodenalis
Giardia intestinalis [8] = assay: Potency index, ratio of metronidazole IC50 to test compound IC50 for Giardicidal activity against metronidazole-resistant Giardia intestinalis incubated for 48 hrs by hemocytometric counting method; type: functional, Giardia duodenalis
Giardia intestinalis [9] = assay: Potency index, ratio of albendazole IC50 to test compound IC50 for Giardicidal activity against nitazoxanide resistant Giardia intestinalis incubated for 48 hrs by hemocytometric counting method; type: functional, Giardia duodenalis

| SMILES | IC50 (Giardia intestinalis [1]) [nM] | Ratio IC50 (Giardia intestinalis [2]) | IC50 (Giardia intestinalis [3]) [nM] | IC50 (Giardia intestinalis [4]) [nM] | Ratio IC50 (Giardia intestinalis [5]) | IC50 (Giardia intestinalis [6]) [nM] | IC50 (Giardia intestinalis [7]) [nM] | Ratio IC50 (Giardia intestinalis [8]) | Ratio IC50 (Giardia intestinalis [9]) |
| --- | --- | --- | --- | --- | --- | --- | --- | --- | --- |
| COc1ccc2[nH]c([S+]([O-])Cc3ncc(C)c(OC)c3C)nc2n1 (stereo not given) [TENATOPRAZOLE] | 59 | 5 | 20 | 19 | 40 | 49 | 27 | 31 | – |
| CCOC(=O)Nc1nc2ccccc2[nH]1 [LOBENDAZOLE] | 200 | – | 37 | 85 | 32 | 61 | 916 | – | 4.5 |
| CCCSc1ccc2[nH]c(NC(=O)OC)nc2c1 [ALBENDAZOLE] | – | – | – | 47 | – | 277 | 137 | – | – |
| CCOc1ccc2nc(SCCN3CCOCC3)[nH]c2c1 [FABOMOTIZOLE] | 50 | – | 29 | 31 | – | 65 | 50 | – | – |
| CC(C)Oc1ccc2c(=O)c(-c3ccccc3)coc2c1 [IPRIFLAVONE] | 510 | – | 25 | 34 | – | 14 | 45 | – | – |
| CC(=O)Oc1ccccc1C(=O)Nc1ncc([N+](=O)[O-])s1 [NITAZOXANIDE] | 17 | – | 15 | 18 | – | 1970 | 21 | – | – |
| Cc1ncc([N+](=O)[O-])n1CCO [METRONIDAZOLE] | 1850 | – | – | – | – | – | 1630 | – | – |
